The values below are quoted from earlier work in patent publication US20070065359A1, “Nanocells for diagnosis and treatment of diseases and disorders” (priority 2005, published 2007).

For this series, the target named is TF antigen. The note with it: peptide displayed as a monomer; read-out: affinity for the TF antigen.

Take “IVWHRWYAWSPASRI [TF antigen-binding peptide, I—V—W—H—R—W—Y-A-W—S—P-A-S—R—I]”: the Kd was 600 nM.
